Results on eight molecules are retold here after ChEMBL document CHEMBL1121589, “Synthesis and biological activities of 5-(hydroxymethyl, azidomethyl, or aminomethyl)-2'-deoxyuridine and related 5'-substituted analogues” (J Med Chem, 1980).

Broadly, the pKi is the Ki on a negative log10 scale, so that one unit is a factor of ten. The inhibition is the drop in the measured response relative to a control, in per cent.

Assay type in all cases: functional
Test [1] deals with Human alphaherpesvirus 1. Description: Antiviral activity against herpes simplex virus type I was measured at 400 uM concentration.
In test [2] the test system is L1210. Description: Compound tested for inhibition of the replication of L1210 cells in cell culture. The settings on record: Mus musculus, read-out: ED50 (the source's name).
A short description of test [3]: Inhibitory activity against growth of sarcoma 180 cells at 1 uM. The settings on record: Mus musculus, read-out: ED50 (the source's name).
Test [4] has as its system Human alphaherpesvirus 1. Description: Kinetic inhibition constant against herpes simplex virus type I pyrimidine deoxyribonucleoside kinase was measured.
The subject of test [5] is L1210. Description: Compound tested for inhibition of the replication of L1210 cells in cell culture at 7 uM. The settings on record: Mus musculus.
Test [6] concerns Human alphaherpesvirus 1. Kind of test: Antiviral activity against herpes simplex virus type I was measured at 200 uM concentration.
Test [7] relates to Human alphaherpesvirus 1. Description: Antiviral activity against herpes simplex virus type I was measured at 5 uM concentration.
Test [8] concerns L1210. Description: Compound tested for inhibition of the replication of L1210 cells in cell culture at 200 uM. The settings on record: Mus musculus.

pEC50, pKi: −log10 of the molar value. Bounds are passed on as bounds.

As for `NCc1cn([C@H]2C[C@H](O)[C@@H](CO)O2)c(=O)[nH]c1=O`, the Control with Human alphaherpesvirus 1 [1] is 100%. For the same molecule, the pEC50 is 5.70 in the test with L1210 [2] and 6.80 in test [3]. The molecule also had a pKi with Human alphaherpesvirus 1 [4] of 4.44. In the test on L1210 [5], this molecule came in with an inhibition at 7 µM of 93%.
As for `[N-]=[N+]=NC[C@H]1O[C@@H](n2cc(CO)c(=O)[nH]c2=O)C[C@@H]1O`, in the test on Human alphaherpesvirus 1 [6], the Control is listed as 100%. Also, in the test on Human alphaherpesvirus 1 [4], the negative logarithm of the Ki (pKi) is 4.51.
For the molecule `[N-]=[N+]=NCc1cn([C@H]2C[C@H](O)[C@@H](CN=[N+]=[N-])O2)c(=O)[nH]c1=O`, in the test with Human alphaherpesvirus 1 [1], the Control turned out to be 100%. The same molecule gave a pKi in the test on Human alphaherpesvirus 1 [4] of 4.21.
For `O=c1[nH]c(=O)n([C@H]2C[C@H](O)[C@@H](CO)O2)cc1I` [IDOXURIDINE], in the test with Human alphaherpesvirus 1 [7], the Control amounted to 2%. Moreover, the negative logarithm of the Ki (pKi) with Human alphaherpesvirus 1 [4] was 6.40.
`NC[C@H]1O[C@@H](n2cc(CO)c(=O)[nH]c2=O)C[C@@H]1O` yielded a Control in the test on Human alphaherpesvirus 1 [1] of 100%. Further, the negative-log Ki (pKi) in the test with Human alphaherpesvirus 1 [4] is 3.28.
For the molecule `[N-]=[N+]=NCc1cn([C@H]2C[C@H](O)[C@@H](CO)O2)c(=O)[nH]c1=O`, in the test with Human alphaherpesvirus 1 [6], the Control is listed as 0.5%. In the test with L1210 [8], this molecule came in with an inhibition at 200 µM of 96%. Further, the pEC50 in the test with L1210 [2] is 4.05. This molecule also gave a pKi in the test with Human alphaherpesvirus 1 [4] of 6.10.
In the test on Human alphaherpesvirus 1 [1], `NCc1cn([C@H]2C[C@H](O)[C@@H](CN)O2)c(=O)[nH]c1=O` displayed a Control of 100%. In the test with Human alphaherpesvirus 1 [4], this molecule gave a pKi of less than 3.30.
The molecule `O=c1[nH]c(=O)n([C@H]2C[C@H](O)[C@@H](CO)O2)cc1CO` returned a Control with Human alphaherpesvirus 1 [6] of 0.05%. Further, the negative logarithm of the Ki (pKi) in the test with Human alphaherpesvirus 1 [4] was 5.46.
